Patent US6988613B2, “Composition for IVF” (Novo Nordisk A/S, priority 2001, dated 2006)
≈ marks a conversion by molar mass, not a printed value. Where two headings read alike, the source gives them in different places.

Tests used:
[1] = system: oocytes obtained from immature female mice; assay: Germinal vesicle breakdown (GVB) test on mouse oocytes; format: cell-based
Experimental: Oocytes were obtained from immature female mice (C57BL/6J×DBA/2J F1, Bomholtgaard, Denmark) weighing 13–16 grams, that were kept under controlled temperature (20–22° C.), light (lights on 06.00–18.00) and relative humidity (50–70%). The mice received an intraperitoneal injection of 0.2 ml gonadotropins (Gonal-F, Serono) containing 20 IU FSH and 48 hours later the animals were killed by cervical dislocation. The ovaries were dissected out and the oocytes were isolated in Hx-medium (see below) under a stereo microscope by manual rupture of the follicles using a pair of 27 gauge needles. Spherical oocytes displaying an intact germinal vesicle (hereinafter designated GV) were divided in cumulus enclosed oocytes (hereinafter designated CEO) and naked oocytes (hereinafter designated NO) and placed in α-minimum essential medium (α-MEM without ribonucleosides, Gibco BRL, Cat. No. 22561) supplemented with 3 mg/ml bovine serum albumin (BSA, Sigma Cat. No. A-7030), 5 mg/ml human serum albumin (HSA, State Serum Institute, Denmark), 0.23 mM pyruvate (Sigma, Cat. No S-8636), 2 mM glutamine (Flow Cat. No. 16-801), 100 IU/ml penicillin and 100 μg/ml streptomycin (Flow, Cat No. 16-700). This medium was supplemented with 3 mM hypoxanthine (Sigma Cat. No. H-9377) and designated Hx-medium.
The oocytes were rinsed three times in Hx-medium and oocytes of uniform size were divided into groups of CEO and NO. CEO and NO were cultured in 4-well multidishes (Nunclon, Denmark) in which each well contained 0.4 ml of Hx-medium and the compound to be tested in a concentration of 10 μM. One control well (i.e., 35–45 oocytes cultured in identical medium with no addition of test compound) was always cultured simultaneously with 3 test wells (35–45 oocytes per well supplemented with test compound).
The oocytes were cultured in a humidified atmosphere of 5% CO2 in air for 24 hours at 37° C. By the end of the culture period, the number of oocytes with GV, GVB and polar bodies (hereinafter designated PB), respectively, were counted using a stereo microscope (Wildt, Leica MZ 12). The percentage of GVB, defined as percentage of oocytes undergoing GVB per total number of oocytes in that well, was calculated as: % GVB=((number of GVB+number of PB)/total number of oocytes)×100.
FF-MAS was dissolved in ethanol (25 μg FF-MAS/ml ethanol). HSA is dissolved in water (1%). 100 μl of the above mentioned ethanol solution (corresponding to the amount of FF-MAS needed for one treatment) and 350 μl of the above-mentioned HSA solution were mixed in a glass vial. The resulting mixture of FF-MAS and HSA was evaporated to dryness by airflow of argon. After the liquid was evaporated, the vial was sealed by a rubber septum and the vial was placed at a temperature of 2–8° C. At the time for usage, 500 μl of freshly prepared IVM media was added to the residue in the vial and shaken calmly for 1–2 minutes. The IVM media used was TCM 199 with Earle's salts (Sigma) to which was added 0.8% HSA, 2 mM L-glutamine, 0.25 mM sodium pyrovate, 100 IU/ml penicillin G, and 100 microgram/ml streptomycin. The liquid was transferred to a 4-well dish and the composition was tested on oocytes obtained from immature female mice. Percentage GVB obtained, see below in Table 1.
FF-MAS was dissolved in ethanol (20 μg FF-MAS/ml ethanol) and HSA was dissolved in water (1%). 100 μl of the above mentioned ethanol solution (corresponding to the amount of FF-MAS needed for one treatment) and 250 μl of the above-mentioned HSA solution were mixed and 350 μl of the combined liquid was aliquoted in a glass vials. The vials were placed at −80° C. for one night. All samples were thereafter freeze-dried at −45° C. for 16 hours followed by 8 hours freeze drying at −15° C. and 8 hours freeze drying at +25° C. Before the freeze dryer was opened all vials were automatically sealed with rubber septums by a pressure of nitrogen. The vials were closed with a capsule and placed at a temperature of 2–8° C. […]

[2] = Solubility of FF-MAS in water, ethanol and ethanol/water; format: physicochemical
Experimental: The solubility of a preferred MAS, i.e., FF-MAS, in water is very low, i.e., approximately 20 picogram/ml (corresponding to 2×10^−5 μg/ml). […] According to our preliminary investigations, the highest solubility of FF-MAS in a mixture of ethanol and water (1:2.5) is approximately 0.4 mg/ml. Several other MASs have a similar low solubility in water.

CC(C)=CCC[C@@H](C)[C@H]1CC=C2C3=C(CC[C@@]21C)[C@@]1(C)CC[C@H](O)C(C)(C)[C@@H]1CC3 [FF-MAS, 4,4-dimethyl-5α-cholesta-8,14,24-triene-3β-ol]
% GVB ([1]; Dose FF-MAS 0.24 μmol/l, in combination with HSA 6 mg/ml, Example 3): 86%
% GVB ([1]; Dose FF-MAS 0.48 μmol/l, in combination with HSA 6 mg/ml, Example 3): 88%
% GVB ([1]; Dose FF-MAS 1.2 μmol/l, in combination with HSA 6 mg/ml, Example 3): 91%
% GVB ([1]; Dose FF-MAS 2.4 μmol/l, in combination with HSA 6 mg/ml, Example 3): 97%
% GVB ([1]; Dose FF-MAS 10 μmol/l, internal control dissolved in ethanol, Example 3): 43%
% GVB ([1]; Dose FF-MAS 10 μmol/l, internal control dissolved in ethanol, Example 4, first test): 85%
% GVB ([1]; Dose FF-MAS 10 μmol/l, internal control dissolved in ethanol, Example 4, second test): 83%
% GVB ([1]; Dose FF-MAS 10 μmol/l, internal control dissolved in ethanol, Example 8, 5 tests): 85%
solubility ([2]; ethanol/water (1:2.5), aqueous with cosolvent or surfactant or cyclodextrin, ethanol and water (1:2.5), preliminary investigations, read-out: highest solubility of FF-MAS in a mixture of ethanol and water): ~400 µg/mL (≈ 0.974 mM)
solubility of FF-MAS in water ([2]; in water): approximately 20 picogram/ml
solubility ([2]; organic solvent or mixture, in ethanol, read-out: solubility of FF-MAS in ethanol): ~12000 µg/mL (≈ 29.2 mM)
